Results: patent US6369030B1, “Inhibitors of histone acetyltransferases (HATs) and uses thereof” (The Rockfeller University, priority 1999, dated 2002)
“And” between values parts separate entries of the source, which are not always exact repeats. Identical values can stand only once. Like-named read-outs stand apart in the source and are kept apart here. Residues, ends and D or L forms follow the SMILES beside them. *: point of attachment. CoASCH2CO = CC(C)(COP(=O)(O)OP(=O)(O)OC[C@H]1O[C@@H](n2cnc3c(N)ncnc32)[C@H](O)[C@@H]1OP(=O)(O)O)[C@@H](O)C(=O)NCCC(=O)NCCSCC(=O)*

Legend:
PCAF [1] = molecular target: T1, PCAF (Homo sapiens, UniProt Q92831); experiment: HAT activity inhibition assay, PCAF, mixed histones as substrate; type: biochemical; conditions: for IC50: [acetyl-CoA]=10 M, [mixed histones]=33 μg/mL, standard errors estimated ±20%
T1 construct: Full length PCAF and p300 proteins were prepared and purified according to previously described methods; made in house
Experimental: (§1) Screening of the peptide CoA conjugate for inhibition of HAT activity of PCAF and p300 was carried out according to standard HAT assay procedures (Ogryzko et al., 1996; Yang et al., 1996; Schiltz et al., 1999) using commercially available mixed calf histone substrates. […] Full length PCAF and p300 proteins were prepared and purified according to previously described methods (Schiltz et al., 1999). HAT inhibition assay procedures were adapted from previously described methods (gryzko et al., 1996; Yang et al., 1996; Schiltz et al., 1999). Briefly, substrate concentrations were 10 μM acetyl-CoA (NEN, ^14C, 0.02 μCi/μL), 33 μg/mL mixed histones (Boehringer); buffer conditions-50 mM Tris-HCl (pH 8), 10 mM sodium butyrate 1 mM phenylmethyl sulfonyl fluoride, 1 mM dithiothreitol, 0.1 mM N,N,N′,N′-ethylenediamine tetraacetic acid and 10% v/v glycerol. Reactions employed purified recombinant p300 and PCAF (Schiltz et al., 1999) at concentrations of 6 nM and 27 nM, respectively. A range of at least 5 inhibitor concentrations were used. Assays were carried out in 0.5 mL plastic tubes at 30° C. and the reaction volumes were 30 μL. Reactions were initiated with the radioactive acetyl-CoA (4 μL) after allowing the enzyme/buffer/histone/inhibitor mixture to equilibrate at 30° C. for 10 min, and reactions quenched after 1 min with 7.5 μL 5×SDS gel load. Mixtures were run out on 15% SDSPAGE visualized with Coomassie blue, dried, and radioactivity quantified by phosphorimage analysis (Molecular Dynamics). In all cases, background acetylation (in the absence of enzyme) was subtracted from the total signal.

p300 [2] = molecular target: T2, p300 (Homo sapiens, UniProt Q09472); experiment: HAT activity inhibition assay, p300, mixed histones as substrate; type: biochemical
T2 construct: Full length PCAF and p300 proteins were prepared and purified according to previously described methods; made in house
Experimental: as §1

p300 [3] = molecular target: T2, p300; experiment: HAT inhibition assay, p300, nucleosomes as substrate; type: biochemical; conditions: inhibitor 20 μM
Experimental: (§2) Full length PCAF and p300 proteins were prepared and purified according to previously described methods (Schiltz et al., 1999). HAT inhibition assay procedures were adapted from previously described methods (gryzko et al., 1996; Yang et al., 1996; Schiltz et al., 1999). […] Reactions employed purified recombinant p300 and PCAF (Schiltz et al., 1999) at concentrations of 6 nM and 27 nM, respectively. A range of at least 5 inhibitor concentrations were used. Assays were carried out in 0.5 mL plastic tubes at 30° C. and the reaction volumes were 30 μL. Reactions were initiated with the radioactive acetyl-CoA (4 μL) after allowing the enzyme/buffer/histone/inhibitor mixture to equilibrate at 30° C. for 10 min, and reactions quenched after 1 min with 7.5 μL 5×SDS gel load. Mixtures were run out on 15% SDSPAGE visualized with Coomassie blue, dried, and radioactivity quantified by phosphorimage analysis (Molecular Dynamics). In all cases, background acetylation (in the absence of enzyme) was subtracted from the total signal.
(§3) 3) FIG. 3. Assessment of p300 and PCAF HAT Activities in p300/PCAF Mixtures. (A) p300 and PCAF HAT activities with mixed histones as substrates.

[4] = test system: p300 and acetyl-CoA dependent transcription from chromatin template; experiment: In vitro chromatin-template transcription dependent on p300 HAT activity; type: biochemical, human
Experimental: (§4) FIG. 4B and C: Transcription from naked DNA and chromatin templates. DNA (28 ng) and freshly assembled chromatin templates (with an equivalent amount of DNA) were incubated with or without activator, Gal4-VP16 (30 ng) for 20 min at 30° C.; 25 ng of baculovirus expressed, highly purified p300 (full length) and 1.5 μM of acetyl-CoA were added as indicated. Following the addition of nuclear extract (source of general transcription factors) and NTPs, transcription reactions were incubated and processed as described.
The chromatin template was reconstituted by incubation of purified proteins (HeLa core histones, NAP1 and rh TopoI) with a 5.4 kb plasmid (p20855G5MLC2AT) that contains a 690 bp promoter region (5 Gal4 binding sites and the adenovirus major late promoter with a G-less cassette) flanked on both sides by the 5 nucleosome positioning sequence from the sea urchin 55 rRNA gene (Cote et al., 1995). Assembled chromatin was structurally characterized by supercoiling and micrococcal nuclease (MNase) assay (data not shown).
Chromatin template for transcription studies were assembled on a ˜5.4 kb plasmid (p2085S G5MLC2AT) with purified human core histones, rh TpopI, and NAP1 as described (T. K. K. et al., manuscript in preparation). Prior to use in the transcription experiment, assembled, chromatin was subjected to supercoiling and Mnase assay. […]

naked DNA transcription = experiment: In vitro transcription from naked DNA template; type: biochemical; conditions: 10 μM inhibitor; average of 4 independent experiments
Experimental: as §4
Recombinant His6-tagged nucleosome assembly protein 1 (NAP1) and transcription activator Gal4-VP16 were expressed in E. coli and purified with nitrilloacetic acid-agarose (Qiagen) as specified by the manufacturer. […] In vitro transcription assays were carried out in 50 μL reaction mixtures containing either 28 ng of DNA or an equivalent amount of chromatin.
(A) Outline of the in vitro transcription protocol. (B) and (C) Transcription form naked DNA and chromatin templates. DNA (28 ng) and freshly assembled chromatin templates (with an equivalent amount of DNA) were incubated with or without activator, Gal4-VP16 (30 ng) for 20 min at 30°, 25 ng of baculovirus expressed, highly purified p300 (full length) and 1.5 μM of acetyl-CoA were added as indicated. […]

PCAF [5] = molecular target: T1, PCAF; type: biochemical; conditions: nucleosomes as substrate, inhibitor 20 μM
Experimental: as §2, §3

[6] = [acetyl-CoA]=10 M, [mixed histones]=33 μg/mL, standard errors estimated ±20%, read-out: IC50 with p300
[7] = mixed histones, individual enzyme, inhibitor 20 μM

T1 sequence (Q92831 whole entry): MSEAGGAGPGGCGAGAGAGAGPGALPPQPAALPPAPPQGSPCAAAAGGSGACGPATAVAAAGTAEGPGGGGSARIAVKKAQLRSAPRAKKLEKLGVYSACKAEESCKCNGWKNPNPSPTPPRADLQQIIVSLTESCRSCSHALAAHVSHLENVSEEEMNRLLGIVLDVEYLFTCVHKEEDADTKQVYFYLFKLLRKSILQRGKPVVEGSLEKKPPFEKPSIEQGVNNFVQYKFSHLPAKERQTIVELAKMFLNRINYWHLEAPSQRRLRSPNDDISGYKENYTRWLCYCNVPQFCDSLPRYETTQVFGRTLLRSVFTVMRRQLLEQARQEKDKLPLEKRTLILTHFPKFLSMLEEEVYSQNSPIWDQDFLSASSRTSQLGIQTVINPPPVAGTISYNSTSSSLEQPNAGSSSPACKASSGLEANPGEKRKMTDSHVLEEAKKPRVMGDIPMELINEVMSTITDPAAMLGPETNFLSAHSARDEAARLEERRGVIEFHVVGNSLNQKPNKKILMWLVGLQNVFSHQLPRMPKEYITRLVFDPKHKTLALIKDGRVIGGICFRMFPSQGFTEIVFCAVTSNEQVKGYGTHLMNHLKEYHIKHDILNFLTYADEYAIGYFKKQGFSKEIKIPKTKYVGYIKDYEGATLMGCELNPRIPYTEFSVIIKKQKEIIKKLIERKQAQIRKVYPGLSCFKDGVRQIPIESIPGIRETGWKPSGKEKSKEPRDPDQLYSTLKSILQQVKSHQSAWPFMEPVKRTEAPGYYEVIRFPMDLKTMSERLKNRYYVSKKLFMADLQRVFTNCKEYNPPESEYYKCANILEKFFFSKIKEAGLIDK
T2 sequence (Q09472 whole entry): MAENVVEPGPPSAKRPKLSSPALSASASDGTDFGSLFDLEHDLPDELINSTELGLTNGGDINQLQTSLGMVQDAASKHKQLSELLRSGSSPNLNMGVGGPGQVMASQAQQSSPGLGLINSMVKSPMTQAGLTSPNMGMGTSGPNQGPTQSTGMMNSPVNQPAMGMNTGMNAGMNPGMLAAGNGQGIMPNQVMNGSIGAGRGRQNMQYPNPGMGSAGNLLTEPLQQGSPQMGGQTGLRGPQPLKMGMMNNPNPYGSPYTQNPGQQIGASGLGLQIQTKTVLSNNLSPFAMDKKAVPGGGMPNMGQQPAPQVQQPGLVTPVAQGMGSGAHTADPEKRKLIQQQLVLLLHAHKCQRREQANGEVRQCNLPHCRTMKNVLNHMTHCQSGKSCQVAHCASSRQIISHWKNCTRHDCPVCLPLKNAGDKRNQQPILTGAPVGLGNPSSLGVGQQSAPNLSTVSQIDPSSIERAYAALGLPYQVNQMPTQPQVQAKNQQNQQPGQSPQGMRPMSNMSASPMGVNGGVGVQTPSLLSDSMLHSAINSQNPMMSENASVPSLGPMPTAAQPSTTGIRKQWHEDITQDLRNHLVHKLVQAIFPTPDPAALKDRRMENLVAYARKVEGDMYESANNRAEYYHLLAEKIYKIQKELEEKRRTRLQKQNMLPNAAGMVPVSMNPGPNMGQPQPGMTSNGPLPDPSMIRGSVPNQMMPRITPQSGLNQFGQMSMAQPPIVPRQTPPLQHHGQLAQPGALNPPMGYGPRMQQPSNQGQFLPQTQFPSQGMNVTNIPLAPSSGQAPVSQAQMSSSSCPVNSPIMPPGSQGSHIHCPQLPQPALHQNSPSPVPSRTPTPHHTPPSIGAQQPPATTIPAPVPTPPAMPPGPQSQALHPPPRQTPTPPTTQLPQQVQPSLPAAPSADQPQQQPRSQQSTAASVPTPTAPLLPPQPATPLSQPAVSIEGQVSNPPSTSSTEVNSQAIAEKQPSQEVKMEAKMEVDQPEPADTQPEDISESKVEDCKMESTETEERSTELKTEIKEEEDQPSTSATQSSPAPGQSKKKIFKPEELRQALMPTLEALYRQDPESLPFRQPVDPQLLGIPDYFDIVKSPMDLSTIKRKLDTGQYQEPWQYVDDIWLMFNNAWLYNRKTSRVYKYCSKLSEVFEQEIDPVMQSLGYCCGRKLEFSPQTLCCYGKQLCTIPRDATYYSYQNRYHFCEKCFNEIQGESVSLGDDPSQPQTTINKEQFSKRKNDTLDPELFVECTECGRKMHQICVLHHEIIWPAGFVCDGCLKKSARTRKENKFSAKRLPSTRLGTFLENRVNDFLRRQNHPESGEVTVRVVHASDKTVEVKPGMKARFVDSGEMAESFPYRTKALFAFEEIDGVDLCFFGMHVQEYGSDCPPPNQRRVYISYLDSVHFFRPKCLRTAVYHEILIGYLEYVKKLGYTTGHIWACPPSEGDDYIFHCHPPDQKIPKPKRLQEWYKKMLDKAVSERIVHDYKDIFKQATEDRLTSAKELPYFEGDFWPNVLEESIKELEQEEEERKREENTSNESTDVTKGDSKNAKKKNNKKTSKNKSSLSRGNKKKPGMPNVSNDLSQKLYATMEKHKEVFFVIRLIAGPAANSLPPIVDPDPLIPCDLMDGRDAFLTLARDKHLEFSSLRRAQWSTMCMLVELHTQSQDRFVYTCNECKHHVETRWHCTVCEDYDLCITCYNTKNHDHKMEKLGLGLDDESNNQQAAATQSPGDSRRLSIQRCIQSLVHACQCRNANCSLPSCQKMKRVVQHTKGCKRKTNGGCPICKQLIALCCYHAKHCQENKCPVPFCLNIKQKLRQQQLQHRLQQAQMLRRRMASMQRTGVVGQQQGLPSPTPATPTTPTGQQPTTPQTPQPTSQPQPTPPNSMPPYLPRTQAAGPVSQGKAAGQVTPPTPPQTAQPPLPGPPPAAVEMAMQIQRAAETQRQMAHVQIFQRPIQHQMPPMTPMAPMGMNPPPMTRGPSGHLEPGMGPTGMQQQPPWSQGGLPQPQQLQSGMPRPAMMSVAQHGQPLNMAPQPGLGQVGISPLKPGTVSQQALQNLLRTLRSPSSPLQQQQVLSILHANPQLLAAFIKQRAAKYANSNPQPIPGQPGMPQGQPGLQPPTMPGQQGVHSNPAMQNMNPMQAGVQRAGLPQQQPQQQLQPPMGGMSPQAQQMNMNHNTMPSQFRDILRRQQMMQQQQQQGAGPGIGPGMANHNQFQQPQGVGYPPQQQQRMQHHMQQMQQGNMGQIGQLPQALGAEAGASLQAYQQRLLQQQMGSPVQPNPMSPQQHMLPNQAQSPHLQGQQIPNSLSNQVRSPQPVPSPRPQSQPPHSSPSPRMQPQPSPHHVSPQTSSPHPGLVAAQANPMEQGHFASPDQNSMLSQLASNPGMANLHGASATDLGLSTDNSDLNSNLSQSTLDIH

Row | Structure (SMILES) | IC50 (PCAF [1]) | inhibition of PCAF HAT activity, in words (PCAF [1]; mixed histones) | IC50 (p300 [2]; [6]) | p300 inhibition (nucleosome acetylation) (p300 [3]) | inhibition with PCAF (PCAF [1]; [7]) | transcriptional activation from chromatin template in the presence of p300-PCAF mixtures ([4]; p300-PCAF mixtures, data not shown) | inhibition of p300 and acetyl-CoA dependent transcription activation from the chromatin template ([4]; p300 preincubated with 10 μM inhibitor) | selectivity in blocking p300 HAT activity (versus PCAF) (p300 [2]) | IC50 (p300 [2]; mixed calf histone substrates, read-out: IC50 of p300 acetyltransferase activity) | p300 HAT activity blocked (p300 [2]; [7]) | inhibition of naked DNA transcription (naked DNA transcription) | PCAF inhibition (nucleosome acetylation) (PCAF [5]) | inhibition of p300 HAT activity, in words (p300 [2]; mixed histones)
1 | CC(=O)NCC(=O)NCC(=O)N[C@@H](CCCCNC(=O)CSCCNC(=O)CCNC(=O)[C@H](O)C(C)(C)COP(=O)(O)OP(=O)(O)OC[C@H]1O[C@@H](n2cnc3c(N)ncnc32)[C@H](O)[C@@H]1OP(=O)(O)O)C(=O)N[C@@H](C)C(=O)N1CCC[C@H]1C(=O)N[C@@H](CCCNC(=N)N)C(=O)N[C@@H](CCCCN)C(N)=O [Compound H3-CoA-7] (Ac-GGK(CoASCH2CO)APRK-NH2) | > 20000 nM | not achieved | > 30000 nM |  |  |  |  |  |  |  |  |  | 
2 | CC(=O)N[C@@H](CCCCNC(=O)CSCCNC(=O)CCNC(=O)[C@H](O)C(C)(C)COP(=O)(O)OP(=O)(O)OC[C@H]1O[C@@H](n2cnc3c(N)ncnc32)[C@H](O)[C@@H]1OP(=O)(O)O)C(N)=O [Lys-CoA] | ~200000 nM |  | ~500 nM and 500 nM | greater than 90% | less than 10% | abolished transcriptional activation | completely abolished | ~200 fold | ~500 nM | greater than 90% | 15-20% | less than 10% | 
3 | CC(C)(COP(=O)(O)OP(=O)(O)OC[C@H]1O[C@@H](n2cnc3c(N)ncnc32)[C@H](O)[C@@H]1OP(=O)(O)O)[C@@H](O)C(=O)NCCC(=O)NCCS [CoASH, reference compound] | > 20000 nM | Neither the H3-20 peptide (which lacked CoA attachment) nor CoASH itself were potent HAT inhibitors |  |  |  |  |  |  |  |  |  |  | Neither the H3-20 peptide (which lacked CoA attachment) nor CoASH itself were potent HAT inhibitors
